Measured values from patent US20030187261A1, “Purine derivatives, process for their preparation and use thereof” (priority 2000, published 2003).
Read-outs that look alike come from different tables or passages of the source.

Assays:
CDC2 = biological target: T1, CDC2 (Homo sapiens, UniProt P06493); test: p34cdc2 (CDC2) kinase inhibition assay, histone H1 substrate; assay type: biochemical; details: Table 5, CDC2 activity in cell free system
T1 construct: made in house; host or cells: Sf9 insect cells, baculovirus co-infection
T1 sequence (P06493 whole entry, species assumed): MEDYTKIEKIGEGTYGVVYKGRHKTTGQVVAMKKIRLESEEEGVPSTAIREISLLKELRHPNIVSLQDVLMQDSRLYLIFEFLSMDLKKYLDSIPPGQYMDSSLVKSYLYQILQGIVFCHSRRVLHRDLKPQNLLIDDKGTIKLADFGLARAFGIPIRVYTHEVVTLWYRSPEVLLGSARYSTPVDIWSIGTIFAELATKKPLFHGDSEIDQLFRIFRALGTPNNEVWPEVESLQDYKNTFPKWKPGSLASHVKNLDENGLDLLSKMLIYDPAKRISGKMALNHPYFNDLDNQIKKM
T1 sequence (P14635 whole entry partner, species assumed): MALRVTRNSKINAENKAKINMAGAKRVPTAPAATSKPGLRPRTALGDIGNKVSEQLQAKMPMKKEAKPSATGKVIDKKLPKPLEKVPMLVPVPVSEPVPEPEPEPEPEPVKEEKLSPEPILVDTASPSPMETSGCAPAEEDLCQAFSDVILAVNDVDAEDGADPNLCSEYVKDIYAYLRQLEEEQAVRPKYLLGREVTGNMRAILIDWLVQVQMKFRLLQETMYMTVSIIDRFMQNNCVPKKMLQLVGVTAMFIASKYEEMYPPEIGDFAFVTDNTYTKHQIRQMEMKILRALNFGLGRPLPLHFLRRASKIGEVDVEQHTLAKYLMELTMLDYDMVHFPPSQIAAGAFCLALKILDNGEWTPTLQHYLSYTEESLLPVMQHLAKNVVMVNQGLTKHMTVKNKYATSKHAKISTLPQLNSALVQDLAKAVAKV
Description: Cyclin-dependent kinases (p34^cdc2, p33^cdk2, p33^cdk4 and cyclins (cyclin B, E and DI) are produced in Sf9 insect cells coinfected with appropriate baculoviral constructs. The cells are harvested 68-72 hrs post infection in lysis buffer for 30 min on ice and the soluble fraction is recovered by centrifugation at 14.000 g for 10 min. The protein extract is stored at −80° C.
To carry out experiments on kinetics under linear conditions, the final point test system for kinase activity measurement is used. The kinase is added to the reaction mixture in such a way that linear activity is obtained with respect to the concentration of enzyme and with respect to time.
Inhibition of p33^cdk4 kinase is determined with Rb-GST (0.2 mg/ml) as the substrate. Kinase activity is determined at 30° C. in kinase buffer.
Tested compounds are usually dissolved to 100 mM solutions in DMSO, the final concentration of DMSO in reaction mixture never exceeds 1%. The controls contain suitable dilutions of DMSO. After 10 min, the addition of 3×SDS sample buffer stops the incubations. […] The measurement of kinase activity is done using digital image analysis. The kinase activity is expressed as a percentage of maximum activity, the apparent inhibition constants are determined by graphic analysis. Kinase buffer: 50 mM Hepes pH 7.4, 10 mM MgCl21 5 mM EGTA, 10 mM 2-glycerolphosphate,

[1] = system: PHA-stimulated lymphocytes (PBMC); test: cell number of PHA-stimulated lymphocytes (PBMC), flow cytometry; assay type: cell-based, human; details: 96 hours, in the presence of IL-2; for CC50: Homo sapiens, Lymphocyte, read-out: Lymphocytes IC50
Description: Human peripheral blood mononuclear cells were isolated by density gradient (Ficoll-Hypaque) (LSM, ICN Biomedicals Inc.). PBMC were stimulated with 5 μg/ml phytohemaglutinin A (PHA) (Sigma) during 24-48 hours in IMDM supplemented with 10% FCS (IMDM/10% FCS) at 37° C. After washing off the PHA, PBMC were incubated with interleukin-2 (IL-2) (10 U/ml) (Genzyme).
(§1) Cells were plated at 10000 per well in 200 μl IMDM medium and incubated with 0-50 μM of the compounds of the invention (Table 5), by addition of the drugs directly to the culture medium and incubated at 37° C. for 96 hours. Absolute cell number was determined by addition of a known concentration of Fluoresbrite microspheres (FITC) (Polysciences, Inc.). The absolute number of cells per well was calculated as: {(total number of beads added per well)/(number of beads measured)}×(number of measured cells in the gate of interest). All analyses were performed with a FACScan (BD), using CELLQuest software (Becton Dickinson).
The novel compounds were tested for cytotoxicity on PHA-stimulated lymphocytes (PBMC), as one of the normal counterparts of the cell lines. Cells were grown for 96 hours in the presence of IL-2 and different concentrations of the novel compounds and cell number was counted on the flow cytometer.

[2] = system: T-lymphocyte leukemia Molt3 cell line; test: cell growth of Molt3 cell line, flow cytometric cell count; assay type: cell-based, human; details: 96 hours of culture
Description: (§2) Cell lines: Human leukemic cell lines were obtained from the American Type Culture Collection (ATCC, Rockville, Md., USA). They were cultured in Iscove's Modified Dulbecco's Medium (IMDM) supplemented with 10% heat inactivated fetal calf serum (FCS), 200 U/ml penicillin, 200 μg/ml streptomycin and 1 μg/ml amphotericin B. Cells were cultured in a 5% CO2-95% air fully humidified incubator. For effects on clonogenic output, 1000 cells/well were plated in duplicate in methylcellulose (0.9%), supplemented with 20% FCS and cultured for 14 days.
as §1
The response of the myeloid leukemia KG1 and T-lymphocyte leukemia Molt3 cell lines to the cytostatic effect of the novel compounds was determined using the above-mentioned standardized bead suspension that was used to determine the absolute cell number by flow cytometric (FCM) measurement. Cells were grown in the presence of increasing concentrations of the compounds of the invention.

[3] = system: CD34+ hematopoietic progenitors (HPC) from adult bone marrow; test: myeloid colony-forming unit (CFU) assay; assay type: cell-based, human; details: for IC50: 14 days, methylcellulose, total colony output
[4] = system: adult bone marrow CD34+CD38- cells; test: pre-CFU assay; assay type: cell-based, human; details: for IC50: 14 day liquid culture, total clonogenic output after secondary methylcellulose culture
Description: […]. Cells with low-to-medium forward and low side scatter, highly positive green (CD34) fluorescence, and an orange (CD38) fluorescence signal lower than the mean fluorescence of cells labeled with an irrelevant isotype-matched control antibody+2 standard deviations were retained as CD34^+CD38^− cells and used in pre-CFU assays.
Pre-CFU assays were initiated by performing liquid cultures of CD34^+CD38^− cells in duplicate in 96-well flat-bottomed plates in IMDM/10% FCS, 1% bovine serum albumin (BSA), 100 U/ml IL-1, 200 U/ml IL-6, 30 U/ml IL-3 and 100 ng/ml stem cell factor (SCF). Pre-CFU cultures were initiated with 500 CD34^+CD38^− cells/well (200 μl). After 14 days of culture at 37° C. in 7.5% O2 and 5% CO2 in a fully humidified incubator, the number of cells in each well was counted. Subsequently, the cells were harvested, washed three times in IMDM/10% FCS, and plated in duplicate at 500 cells/well (1000 μl) in secondary methylcellulose CFU cultures as described for CFU assays.
Pre-CFU were cultured starting from adult bone marrow CD34^+CD38^− cells, that had been isolated using the FCM cell sorter. Novel compounds were added at different concentrations to the primary 14 day liquid culture. IC50 was calculated from dose-response curves from total clonogenic output after secondary methylcellulose culture (Table 5).

KG1 = test: clonogenic output of KG1 in methylcellulose; assay type: cell-based, human; details: 25 μM, 14 days
Description: as §2
Clonogenic output of KG1 was tested in methylcellulose with 25 μM of some of the novel compounds.

KG1 cells = test: apoptosis and cell cycle in KG1 cells (fluorescence microscopy, TUNEL); assay type: cell-based, human
Description: Nuclear morphology of the cells was analysed with the fluorochromes Hoechst 33342 (λEx max 346 nm; λEm max 460 nm) (Sigma) prepared in phosphate-buffered saline (PBS at 0.1 mg/ml, added to the culture medium at a final concentration of 2 μg/ml and ethidium bromide (EB) (λEx max 540 nm; λEm max 625 nm) (Sigma) prepared in PBS at 100 μg/ml and added to the culture medium at a final concentration of 2 μg/ml (Lizard, 1995). Hundred cells were counted for each sample and percentage of apoptosis was determined.
Control and novel compound-treated cell cultures were washed with PBS and fixed in […] (pH 7.4) for 15 minutes on ice. After washing in PBS, cells were permeabilized in 70% cold (−20° C.) ethanol and transferred to 4° C. for at least 1 hour. After rehydratation in PBS, cells were labeled with 50 μl/well TUNEL reaction mixture (Boehringer Mannheim). Cells were incubated in this solution at 37° C. for 40 minutes, washed in PBS and resuspended in 500 μl PBS containing 5 μg/ml EB and 0.1% RNAse. After 30 minutes of incubation at 4° C., green (FITC-dUTP) and red (EB-DNA) fluorescence of individual cells was measured on a FACscan flow cytometer (Gorczyca, 1993). Negative control (fixed and permeabilized cells incubated with 50 μl label solution per well without terminal transferase, instead of TUNEL reaction mixture) and positive control (fixed and permeabilized cells incubated with DNase I (100 μg/ml) that induces DNA strand breaks) were included in each experimental set-up.
Flow cytometric detection of apoptosis combined with DNA staining can identify apoptotic cells and simultaneously evaluate their position in the cell cycle. This technique was used to provide infomation about the possible cell cycle specific initiation of apoptosis by the tested compounds. If more than 2% of apoptotic cells were detected by the TUNEL method and the absolute number of acquired apoptotic events exceeded 2000, DNA content was simultaneously measured. Within the apoptotic population, analysis and calculation of the different cell cycle phases was carried out by an iterative curve fitting procedure (ModFit LT cell cycle analysis sofware from Verity software house, INC).
Viable, apoptotic, necrotic (=primary necrosis, not following apoptosis) and secondarily necrotic cells (=late apoptotis, evolving to necrosis) were scored differentially after 6, 12, 24, 48 and 72 hours of exposure to novel compounds. For the three products a different apoptosis-inducing pattern could be observed. Apoptosis induction occurs fast after incubation with P23 and P28 but slower after incubation with P27.
Flow cytometric detection of apoptosis and cell cycle analysis: The induction of apoptotic death of KG1 cells by the novel compounds was confirmed using the TUNEL reaction technique (FIG. 5). […] Incubation of KG1 cell line with P27 results in detectable apoptosis after 24 hours. Percentage of apoptotic cells in G0-G1 increases with time, while the number of apoptotic cells in S+G2/M phases decreases. […] After 6 and 12 hours of incubation the apoptotic population seems mainly to evolve from S phase.

[5] = system: myeloid leukemia KG1 cell line; test: cell growth of KG1 cell line, flow cytometric cell count; details: for IC50: read-out: KGI IC50; for cell number after 6 hours of exposure, wash and 7 days in drug-free medium: KG1, compared to control without novel compounds
Description: To determine reversibility of the effects of the new compounds, cells were plated at 10,000 per well and exposed to 0-50 μM of the composed, either continuously for 7 days (control) or only for 6 hours. In the latter case, cells were washed after 6 hours in phosphate-buffered-saline (PBS) (Life Technologies) and reseeded into drug-free medium for 7 days.

MPF activity = test: M-phase promoting factor inhibition in metaphase-arrested Xenopus egg extracts; assay type: biochemical; details: 1.5 h after addition
Description: (§3) Metaphase-arrested Xenopus egg extracts were prepared as described previously by Blow “J. Cell Biol.” 1993, 122:993 and stored in liquid nitrogen. Demembranated Xenopus sperm nuclei were prepared as described by Blow & Laskey “Cell” 1986;47:577.
(§4) At concentrations of cdk inhibitors (see Table 6) ranging from 0.1-2 μM, chromosomes remained highly condensed and no nuclear envelope was visible. At 4-6 μM and higher concentrations, interphase nuclei appeared with partially decondensed chromatin and an intact nuclear envelope. […] For the inhibition effect to become detectable, the first 15-min incubation of the interphase extract is probably sufficient.

DNA synthesis = DNA synthesis in Xenopus egg extracts ([α-32P]dATP incorporation); assay type: biochemical; details: [α-32P]dATP incorporation after 3 h; read-out: Inhibition of DNA synthesis IC50
Description: as §3, §4

HIV-2 = test: anti-HIV-2 activity in CEM cells; assay type: cell-based
Description: The infected cell cultures were incubated at 37° C. for 5 days in a humidified CO2 incubator. The cytopathicity of the virus was examined by determination of MT-4 cell viability by trypan blue dye staining.

β-adrenergic receptors = test: isoproterenol-induced intracellular cAMP synthesis in rat C6 glioma; assay type: cell-based; details: cAMP induced by 5 μM (−) isoproterenol, 30 min
Description: Rat C6 glioma (ATCC N° CCL107) was cultivated in monolayer in serum-free chemically defined medium containing Ham's F10/minimal essential medium (1:1 vol/vol), 2 mM L-glutamine, 1% (vol/vol) minimal essential medium vitamins (100×), 1% (vol/vol) minimal essential medium nonessential amino acids (100×), 100 U/ml penicillin, 100 μg/ml streptomycin and 30 nM sodium selenite. Incubation was at 37° C. in a humidified atmosphere. Assays were performed in the logaritmic growth phase at a density of 2.5×10^5 cells/cm^2. Intracellular cAMP synthesis was induced by addition of 5 μM (−) isoproterenol. After 30 min incubation at 37° C. the medium was removed and the cellular amount of cAMP determined using the cAMP-enzyme immunoassay kit of Amersham. The IC50 is determined from a dose-response curve in duplicate. The effect of seven purine-analogs was measured after simultaneous addition with isoproterenol.
As P2Y1-like and A2 purinergic receptors, negatively and positively coupled to adenylate cyclase respectively, are present on rat C6 glioma the modulation of the synthesis of cAMP may be due to inhibition of the activation of β-adrenergic receptors by isoproterenol or to activation of purinergic receptors.

Row | Structure (SMILES) | IC50 (CDC2) [µM] | IC50 ([2]; Homo sapiens, MOLT-3) [µM] | IC50 ([3]; Homo sapiens, 336 h) [µM] | output of the different types of myeloid colonies (CFU-E, CFU-G and CFU-M) ([3]; scored differentially) | IC50 ([4]; Homo sapiens, 336 h) [µM] | Colony output vs. control cultures without novel compound (KG1) [%] | IC50 ([5]; Homo sapiens, KG-1, 96 h) [µM] | further results
1 | CC(C)n1cnc2c(NC(CO)c3ccccc3)nc(NCCCO)nc21 (racemic) [P27, 2-(3-hydroxypropylamino)-6-[(R,S)-(1-phenyl-2-hydroxyethyl)amino]-9-isopropylpurine] | > 100 | 14 ± 1.5 | > 50 | significantly lower colony output | > 25 | 8 | 7 ± 2 | CC50 [1]: 8 ± 0.5 µM; CFU-M colony output ([3]; scored differentially): not significantly decreased; time of incubation after which apoptosis was detected (TUNEL) (KG1 cells; KG1): 24 h; speed of apoptosis induction (microscopic examination) (KG1 cells; KG1, 6-72 hours of exposure, FIG. 4): slower; apoptotic cells in G0-G1 phase versus control cells (KG1 cells; KG1, TUNEL with EB, FIG. 6): significant after 72 hours; cell number after 6 hours of exposure, wash and 7 days in drug-free medium [5]: (some) recovery of cell number
2 | CC(C)n1cnc2c(NCc3ccc(O)c(O)c3)nc(NCCCO)nc21 |  |  |  |  |  |  |  | IC50 (MPF activity): 3.6 µM; IC50 (DNA synthesis): 4.2 µM
3 | Nc1nc(NCc2ccccc2)c2ncn(CCOCP(=O)(O)O)c2n1 [PME-derivatives: Benzylamino, reference compound] |  |  |  |  |  |  |  | HIV-2 CEM IC50 (HIV-2): >20 mg/L
4 | CC(C)n1cnc2c(NC(CO)c3ccccc3)nc(NCCCO)nc21 (racemic) |  |  |  |  |  |  |  | IC50 (MPF activity): 1.5 µM; IC50 (DNA synthesis): 1.4 µM
5 | CC(C)=CCNc1nc(NCCO)nc2c1ncn2C [P3, 2-(2-hydroxyethylamino)-6-(2-isopentenylamino)-9-methylpurine] |  | ≥ 51 | > 50 | no significant difference | > 25 | 47 | ≥ 51 | 
6 | CC(C)n1cnc2c(NCc3ccccc3)nc(NCCCN)nc21 [P12, 2-(3-aminopropylamino)-6-benzylamino-9-isopropylpurine] | 21 | 19.3 ± 2.3 | 37 | significantly lower colony output | 20 |  | 16 ± 1.7 | Effect (β-adrenergic receptors; rat C6 glioma): inhibition; IC50 (β-adrenergic receptors; read-out: I50): 45 ± 5 µM; CC50 [1]: 8 ± 1.2 µM; cell number after 6 hours of exposure, wash and 7 days in drug-free medium [5]: (some) recovery of cell number
7 | CSc1nc(NC(C)c2ccc(O)c(O)c2)c2ncn(C(C)C)c2n1 (stereo not shown) [P16] | > 200 |  |  | no significant difference |  | 16 |  | IC50 [1]: 26.5 ± 2.8 µM; IC50 [2]: 37 ± 7.9 µM; IC50 [3]: > 50 µM; activity on pre-CFU compared with CFU [4]: more active on pre-CFU than on CFU; IC50 [4]: 16 µM; IC50 ([5]; 96 hours of culture): 23 ± 1.2 µM
